# Measurements reported in ChEMBL document CHEMBL1157433, “Design and synthesis of 4-HPR derivatives for rhabdoid tumors” (Bioorg Med Chem Lett, 2008).
# Active and inactive are the calls of the source. The calls are words filed in the database; no cut-off is given here.
# What was measured:
# [1] = (§1) Cytotoxicity against human MON cells after 3 days by MTS assay; type: functional, cell-based
# MON = test: as §1; type: functional, cell-based
# [2] = Homo sapiens, MON, 72 h, read-out: IC50
Structure (SMILES),"IC50 [1, 2]",also measured
CC1=C(/C=C/C(C)=C/C=C/C(C)=C/C(=O)Nc2ccc(O)cc2)C(C)(C)CCC1 (stereo in doubt) [FENRETINIDE],,"IC50 ([1]; mon, read-out: IC50): 9 µM"
CC1=C(/C=C/C(C)=C/C=C/C(C)=C/C(=O)Nc2ccc([N+](=O)[O-])cc2)C(C)(C)CCC1,> 200 µM,
COc1ccc(NC(=O)/C=C(C)/C=C/C=C(C)/C=C/C2=C(C)CCCC2(C)C)cc1,,IC50 ([1]; mon): Not Active
CC1=C(/C=C/C(C)=C/C=C/C(C)=C/C(=O)Nc2ccc(O)c(Cl)c2)C(C)(C)CCC1,12.5 µM,
CC1=C(/C=C/C(C)=C/C=C/C(C)=C/C(=O)Nc2ccc(O)c([N+](=O)[O-])c2)C(C)(C)CCC1,,Activity (MON): inactive
CC1=C(/C=C/C(C)=C/C=C/C(C)=C/C(=O)Nc2ccc(I)cc2)C(C)(C)CCC1,,Activity (MON): inactive
CC1=C(/C=C/C(C)=C/C=C/C(C)=C/C(=O)Nc2ccc(O)c(I)c2)C(C)(C)CCC1,3 µM,
CC1=C(/C=C/C(C)=C/C=C/C(C)=C/C(=O)Nc2ccc(O)cc2O)C(C)(C)CCC1,8 µM,
CC1=C(/C=C/C(C)=C/C=C/C(C)=C/C(=O)Nc2ccc(O)cc2)C(C)(C)CCC1 (stereo in doubt; 5g) [FENRETINIDE],,"IC50 ([1]; mon, read-out: IC50): 19 µM"
CC1=C(/C=C/C(C)=C/C=C/C(C)=C/C(=O)Nc2ccc(O)c(F)c2)C(C)(C)CCC1,8 µM,
CC1=C(/C=C/C(C)=C/C=C/C(C)=C/C(=O)Nc2ccc(CO)cc2)C(C)(C)CCC1,25 µM,
CC1=C(/C=C/C(C)=C/C=C/C(C)=C/C(=O)Nc2ccc(Cl)cc2)C(C)(C)CCC1,> 200 µM,
CC1=C(/C=C/C(C)=C/C=C/C(C)=C/C(=O)Nc2ccc(Br)cc2)C(C)(C)CCC1,150 µM,
CC1=C(/C=C/C(C)=C/C=C/C(C)=C/C(=O)Nc2ccc(F)cc2)C(C)(C)CCC1,150 µM,
CC1=C(/C=C/C(C)=C/C=C/C(C)=C/C(=O)O)C(C)(C)CCC1 [TRETINOIN],100 µM,
CC1=C(/C=C/C(C)=C/C=C/C(C)=C/C(=O)Nc2ccc(CCO)cc2)C(C)(C)CCC1,> 50 µM,
